According to patent US11739326B2, “RUNX1 inhibition for treatment of proliferative vitreoretinopathy and conditions associated with epithelial to mesenchymal transition” (The Schepens Eye Research Institute, Inc., priority 2017, dated 2023):
Entries after “also recorded” stand apart in the source; their conditions may differ.

Tests used:
ARPE-19 cells [1] = assay: CyQuant cell proliferation assay in ARPE-19 cells; type: cell-based; conditions: for percent live cells: Ro5-3335 100, 50, 25 μM, methotrexate 400, 100, 10 μM, alone or in combination vs vehicle
Description: (§1) ARPE 19 cells were cultured in 96 well plates for 8 hours, followed by treatment with RUNX1 inhibitor (Ro5-3335, Calbiochem) or Methotrexate (Sigma) in growth media or vehicle only for a period of 24 or 48 hours. The cells were washed and the CyQuant Direct nucleic acid stain was added and incubated at 37° C. in the incubator. Fluorescence read outs were measured at wavelengths as instructed in the protocol.

C-PVR cells [2] = assay: CyQuant cell proliferation assay in C-PVR cells; type: cell-based, human; conditions: for percent live cells: C-PVR, Ro5-3335 100, 50, 25 μM, methotrexate 400, 100, 10 μM, alone or in combination vs vehicle
C-PVR cells [3] = assay: Ki67 staining of C-PVR cells (cell number and proliferative capacity); type: cell-based, human; conditions: Ro5-3335 150 μM, 48 hours, vs vehicle
Description: C-PVR (e.g., case 5) cells were transfected with the siRUNX1 or siScramble for 48 hours and washed and fixed with 4% paraformaldehyde for 10 minutes at room temperature. The cells were washed with PBS and blocked for an hour in (10% goat serum in PBS) incubated with rabbit anti-Ki67 antibody (1:50; Novus Biologicals) overnight at 4 degrees. Cells were incubated with secondary antibody goat anti-rabbit 594 (1:300; Life Technologies) for 2 hours along with DAPI, then were washed and imaged (FIG. 7A-7I; quantitation depicted in FIG. 8).
C-PVR cells (e.g., case 5) were cultured in 48 well plates for 24, followed by treatment with 150 μM RUNX1 inhibitor (Ro5-3335, Calbiochem), or vehicle only for a period of 48 hours. The cells were washed and fixed with 4% paraformaldehyde for 10 minutes at room temperature. The cells were washed with PBS and blocked for an hour in (10% goat serum in PBS) incubated with rabbit anti-Ki67 antibody (1:50; Novus Biologicals) overnight at 4 degrees. Cells were incubated with secondary antibody goat anti-rabbit 594 (1:300; Life Technologies) for 2 hours along with DAPI, washed, imaged and quantified using Image J (FIGS. 9A and 9B).
C-PVR cells (e.g., case 5) were cultured in 48 well plates for 24, followed by treatment with 150 μM RUNX1 inhibitor (Ro5-3335, Calbiochem), or vehicle only for a period of 48 hours. […]

human PVR membranes = assay: Human PVR membrane explant model in Matrigel; type: cell-based; conditions: Ro5-3335 150 μM, combination with methotrexate 400 μM; for growth of human PVR membranes in explant model: vs control (DMSO)
Description: (§2) PVR membranes were freshly obtained from patients and placed in growth factor-reduced Matrigel (BD Biosciences) seeded in 24 well plates. 30 μl of matrigel were used to coat the bottom of 24 well plates without touching the edges of the well. After seeding the PVR membrane, explant plates were incubated in a 37° C. cell incubator without medium for 10 minutes in order for the Matrigel to solidify. 500 μl of medium was added to each well and incubated at 37° C. with 5% CO2. The explants were treated with RUNX1 inhibitor (Ro5-3335). Phase contrast photos of individual explants were taken daily.
as §2, with “from patients,” for “from patients and”, “(BD Biosciences), and” for “(BD Biosciences)”, “matrigel was” for “matrigel were”, “After seeding,” for “After seeding”, “PVR membrane” for “PVR membrane,”, “inhibitor (Ro5-3335) or a combination of Ro5-3335 and methotrexate.” for “inhibitor (Ro5-3335).”

ARPE-19 cells [4] = assay: Growth factor-induced EMT in ARPE-19 cells (morphology, marker immunofluorescence); type: cell-based; conditions: TGFβ2, TNFα
Description: ARPE-19 cells were grown to confluence and maintained in 1% serum for 7-10 days (FIG. 22). Cells were treated with growth factors TGFβ2, TNFα and IL-6 (10 ng/ml each) for 3 days, with 150 μM RUNX1 inhibitor (Ro5-3335, Calbiochem) or without (e.g., vehicle). […] EMT was determined by morphological changes including cell shape.
Furthermore, treatment with RUNX1 small molecule inhibitor, Ro5-335, in ARPE-19 cells prevented EMT. This was assessed by the reduction in the epithelial marker, cytokeratin, and an increase in the mesenchymal markers such as fibronectin, and smooth muscle actin (FIGS. 23A and 23B). ARPE-19 cells were grown to confluence and maintained in 1% for 7-10 days. Cells were treated with TGFβ2, TNFα, and a combination of TGFβ2, TNFα and IL-6 (10 ng/ml each) for 3 days with or without 150 uM RUNX1 inhibitor (Ro5-3335, Calbiochem) or vehicle. Cells were washed and fixed with 4% paraformaldehyde for 10 minutes at room temperature. Cells were incubated with primary antibodies, mouse anti-cytokeratin (1:250; Abcam), or rabbit anti-fibronectin (1:500, Sigma) or smooth muscle actin (1:50; DAKO) overnight at 4° C. […]
ARPE-19 cells were grown to 60-70% confluence. […] EMT was determined by morphological changes (e.g., cell shape).

C-PVR cells [5] = assay: CyQuant cell proliferation assay in C-PVR cells; type: cell-based, human; conditions: for proliferation / percent live cells of C-PVR cells: 72 hours, vs vehicle
Description: as §1
A CyQuant Cell Proliferation Assay was performed 48 and 72 hours post-treatment, with lenalidomide at 40 nM, and 80 nM. […] C-PVR cells were cultured in 96 well plates for 8 hours, followed by treatment with lenalidomide (Sigma-Aldrich) in growth media or vehicle only for a period of 48 or 72 hours. The cells were washed, and CyQuant Direct and nucleic acid stain was added and incubated at 37° C. Fluorescence read outs were measured at wavelengths as instructed in the protocol.

Row | Compound | percent live cells (ARPE-19 cells [1]; ARPE-19, 24 hours) | percent live cells (ARPE-19 cells [1]; ARPE-19, 48 hours) | percent live cells (C-PVR cells [2]; 24 hours) | percent live cells (C-PVR cells [2]; 48 hours) | cell number and proliferative capacity of C-PVR cells (Ki67 staining) (C-PVR cells [3]) | cell number and proliferative capacity of C-PVR cells (Ki67 staining) (C-PVR cells [3]; listed as Ro5-335) | detachment of the branches from the primary tissue in human PVR explants (human PVR membranes) | branching, regression of branches and apoptosis in human PVR explants (human PVR membranes; vs DMSO) | growth of human PVR membranes in explant model (human PVR membranes) | growth of human PVR membranes in explant model (human PVR membranes; listed as Ro5-335) | EMT determined by morphological changes including cell shape (ARPE-19 cells [4]; IL-6 (10 ng/ml each) 3 days, Ro5-3335 150 μM vs vehicle) | EMT assessed by cytokeratin, fibronectin and smooth muscle actin immunofluorescence (ARPE-19 cells [4]; combination with IL-6 (10 ng/mL each) 3 days, Ro5-3335 150 uM) | efficacy at inhibiting growth of ARPE-19 cells compared to methotrexate (ARPE-19 cells [1]; 24 or 48 hours) | efficacy at inhibiting growth of C-PVR cells compared to methotrexate (C-PVR cells [2]; 24 or 48 hours) | proliferation of C-PVR cells (C-PVR cells [5]; 40 nM, 48 hours) | proliferation / percent live cells of C-PVR cells (C-PVR cells [5]; 40 nM) | proliferation of C-PVR cells (C-PVR cells [5]; 80 nM, 48 hours) | proliferation / percent live cells of C-PVR cells (C-PVR cells [5]; 80 nM) | proliferation of C-PVR cells (C-PVR cells [5]; 40 and 80 nM, 48 and 72 hours (summary statement)) | proliferation of C-PVR cells (C-PVR cells [5]; 40 and 80 nM, 48 and 72 hours (summary statement), listed as Lenlidomide)
1 | CN(Cc1cnc2nc(N)nc(N)c2n1)c1ccc(C(=O)N[C@@H](CCC(=O)O)C(=O)O)cc1 [methotrexate] | significant reduction in percent live cells | significant reduction in percent live cells | significant reduction in percent live cells | significant reduction in percent live cells | – | – | – | – | – | – | – | – | – | – | – | – | – | – | – | –
2 | O=C1CN=C(c2ccc[nH]2)c2cc(Cl)ccc2N1 [Ro5-3335] | significant reduction in percent live cells | significant reduction in percent live cells | significant reduction in percent live cells | significant reduction in percent live cells | significant reduction in the cell number and proliferative capacity | significant reduction in the cell number and proliferative capacity | Detachment of the branches from the primary tissue was also observed | apoptosis, less branching and a faster regression of the branches; also recorded: Less branching, a faster regression of the branches and apoptosis | significant reduction of human PVR; also recorded: no growth after 4 days; also recorded: reduced growth of human PVR membranes | reduced the growth of human PVR membranes; also recorded: now growth after four days | either no or reduced EMT | prevented EMT | more efficacious at inhibiting growth of ARPE-19 cells; also recorded: more efficacious than treatment with methotrexate | more efficacious than treatment with methotrexate at inhibiting growth of C-PVR cells | – | – | – | – | – | –
3 | Nc1cccc2c1CN(C1CCC(=O)NC1=O)C2=O (stereo not drawn) [lenalidomide, 3-(7-amino-3-oxo-1H-isoindol-2-yl)piperidine-2,6-dione] | – | – | – | – | – | – | – | – | – | – | – | – | – | – | inhibited proliferation | significant reduction in percent live cells | inhibited proliferation | significant reduction in percent live cells | significantly reduced proliferation | inhibited proliferation
